Test results from article PMC9942557, “Bolaamphiphile Analogues of 12-bis-THA Cl2 Are Potent Antimicrobial Therapeutics with Distinct Mechanisms of Action against Bacterial, Mycobacterial, and Fungal Pathogens” (mSphere, 2022).

Assays:
[1] = tested on: VS Enterococcus faecalis NCTC 775; assay: Broth microdilution MIC; type: cell-based
[2] = tested on: Escherichia coli NCTC 12923; assay: Broth microdilution MIC; type: cell-based
[3] = tested on: Ac. pleuropneumoniae 2331; assay: Checkerboard synergy assay (BHI, 5% FBS, 0.01% NAD); type: cell-based, Actinobacillus pleuropneumoniae
[4] = tested on: C. parapsilosis 3209; assay: Broth microdilution MIC; type: cell-based
[5] = tested on: EMRSA-15; type: in vivo, Galleria mellonella
[6] = tested on: C. albicans 3281; assay: Broth microdilution MIC; type: cell-based, Candida albicans; conditions: C. albicans 3281
[7] = tested on: VR Enterococcus faecalis NCTC 12201; assay: Broth microdilution MIC; type: cell-based; conditions: VR Enterococcus faecalis NCTC 12201
[8] = tested on: P. aeruginosa RP73; assay: Checkerboard synergy assay; type: cell-based, Pseudomonas aeruginosa
[9] = tested on: C. tropicalis 8760; assay: Broth microdilution MIC; type: cell-based; conditions: C. tropicalis 8760
[10] = tested on: C. krusei 3876; assay: Broth microdilution MIC; type: cell-based
[11] = tested on: A. baumannii ATCC 17978; assay: G. mellonella burn wound infection model; type: in vivo, Galleria mellonella; conditions: alone; for larvae rescued: 96 h
Text: In addition to the intrahemocoelic infection/therapy models described above, a recently described G. mellonella burn wound model was adopted ([37]). The burn was created using the flat head of a nail, which was heated in a blue Bunsen burner flame until red hot, cooled for 15 s, and superficially applied for 2 s to generate a 2-mm^2 burn. Larvae were then infected with a single colony of A. baumannii ATCC 17978 applied directly to the burn site, or sterile phosphate-buffered saline was applied as a control. Treatment was applied topically 1 h after infection in a volume of 5 μL. Survival was monitored over 96 h.

[12] = tested on: Pseudomonas aeruginosa NCTC 13437; assay: Broth microdilution MIC; type: cell-based
[13] = tested on: EMR Staphylococcus aureus 15 NCTC 13616; assay: Broth microdilution MIC; type: cell-based; conditions: EMR Staphylococcus aureus 15 NCTC 13616
[14] = tested on: Klebsiella pneumoniae NCTC 13368; assay: Broth microdilution MIC; type: cell-based
[15] = tested on: EMR Staphylococcus aureus 16 NCTC 13277; assay: Broth microdilution MIC; type: cell-based; conditions: EMR Staphylococcus aureus 16 NCTC 13277
[16] = tested on: G. vaginalis NCTC 10287; assay: Anaerobic broth microdilution MIC (BHI, 5% horse serum); type: cell-based, Gardnerella vaginalis
[17] = tested on: G. vaginalis KC3; assay: as above; type: cell-based, Gardnerella vaginalis
[18] = tested on: C. parapsilosis; assay: Broth microdilution MIC; type: cell-based
[19] = tested on: Pseudomonas aeruginosa PAO1; assay: Broth microdilution MIC; type: cell-based
[20] = tested on: G. vaginalis KC1; assay: Anaerobic broth microdilution MIC (BHI, 5% horse serum); type: cell-based, Gardnerella vaginalis
[21] = tested on: Klebsiella pneumoniae M6; assay: Broth microdilution MIC; type: cell-based
[22] = tested on: C. auris temp probe; assay: Broth microdilution MIC; type: cell-based, Candida auris; conditions: C. auris temp probe
[23] = tested on: Prevotella bivia NCTC 11156; assay: Anaerobic broth microdilution MIC (BHI, 5% horse serum); type: cell-based
[24] = tested on: Ac. pleuropneumoniae 2356; assay: Checkerboard synergy assay (BHI, 5% FBS, 0.01% NAD); type: cell-based, Actinobacillus pleuropneumoniae
[25] = tested on: Ac. pleuropneumoniae Shope; assay: as above; type: cell-based, Actinobacillus pleuropneumoniae
[26] = tested on: G. vaginalis KC2; assay: Anaerobic broth microdilution MIC (BHI, 5% horse serum); type: cell-based, Gardnerella vaginalis
[27] = tested on: HEK293; assay: In vitro toxicity for cell line; type: cell-based, human; conditions: HEK293; average ± standard error from 3 independent repeats
Text: (§1) TABLE 2 Toxicity of bolaamphiphiles for two cell lines^a | column: Toxicity (EC50 [μg/ml]) of: / 12-bis-THA Cl2; Toxicity (EC50 [μg/ml]) of: / Dequalinium; Toxicity (EC50 [μg/ml]) of: / Quino-bola; Toxicity (EC50 [μg/ml]) of: / Penta-bola; Toxicity (EC50 [μg/ml]) of: / Hepta-bola; Toxicity (EC50 [μg/ml]) of: / Octa-bola; Toxicity (EC50 [μg/ml]) of: / Octa-C10; Toxicity (EC50 [μg/ml]) of: / Octa-C8; Toxicity (EC50 [μg/ml]) of: / Octa-C6

[28] = tested on: HeLa; assay: In vitro toxicity for cell line; type: cell-based, human; conditions: average ± standard error from 3 independent repeats
Text: as §1

[29] = tested on: Ac. pleuropneumoniae 3370; assay: Checkerboard synergy assay (BHI, 5% FBS, 0.01% NAD); type: cell-based, Actinobacillus pleuropneumoniae
[30] = tested on: C. glabrata 8018; assay: Broth microdilution MIC; type: cell-based; conditions: C. glabrata 8018
[31] = tested on: P. aeruginosa NCTC 13437; assay: Checkerboard synergy assay; type: cell-based, Pseudomonas aeruginosa
[32] = tested on: C. albicans 3179; assay: Broth microdilution MIC; type: cell-based, Candida albicans; conditions: C. albicans 3179
[33] = tested on: Acinetobacter baumannii ATCC 17978; assay: Broth microdilution MIC; type: cell-based
[34] = tested on: Acinetobacter baumannii AYE; assay: Broth microdilution MIC; type: cell-based; conditions: Acinetobacter baumannii AYE
[35] = tested on: VR Enterococcus faecium NCTC 12204; assay: Broth microdilution MIC; type: cell-based; conditions: VR Enterococcus faecium NCTC 12204
[36] = tested on: P. aeruginosa PAO1; assay: Checkerboard synergy assay; type: cell-based, Pseudomonas aeruginosa

Compound: Nc1c2c([n+](CCCCCCCCCC[n+]3c4c(c(N)c5ccccc53)CCCCCC4)c3ccccc13)CCCCCC2 [Octa-C10]
- MIC [1]: 2 µg/mL
- MIC [2]: 2 µg/mL
- MIC alone Bolalipid ([3]; Octa-C10/enrofloxacin): 4 to 8 µg/mL
- MIC alone Bolalipid ([3]; Octa-C10/streptomycin): 4 to 8 µg/mL
- MIC [4]: 2 µg/mL
- protection ([5]; in vivo): none of them providing significant protection
- infected larvae rescued ([5]; lowest dose, 0.1 mg/kg): approximately a third
- MIC [6]: 1 µg/mL
- MIC [7]: 1 µg/mL
- MIC alone Bolalipid [8]: 8 µg/mL
- MIC [9]: 0.25 µg/mL
- MIC [10]: 2 µg/mL
- larvae rescued ([11]; 5 mg/kg topical): 48%
- larvae rescued ([11]; 10 mg/kg topical): 60%
- protection ([11]; lower doses (2.5 and 1.25 mg/kg)): ineffective
- MIC [12]: >32 µg/mL
- MIC [13]: 0.25 µg/mL
- MIC [14]: 32 µg/mL
- MIC [15]: 0.25 µg/mL
- MIC [16]: 0.5 to 1 µg/mL
- MIC [17]: 0.5 µg/mL
- MIC [18]: 4 µg/mL
- MIC [19]: >32 µg/mL
- MIC [20]: 0.5 to 1 µg/mL
- MIC [21]: 16 µg/mL
- MIC [22]: 4 µg/mL
- MIC [23]: 0.125 µg/mL
- MIC alone Bolalipid ([24]; Octa-C10/enrofloxacin): 4 to 8 µg/mL
- MIC alone Bolalipid ([24]; Octa-C10/streptomycin): 4 to 8 µg/mL
- MIC alone Bolalipid ([25]; Octa-C10/enrofloxacin): 1 µg/mL
- MIC alone Bolalipid ([25]; Octa-C10/streptomycin): 1 µg/mL
- MIC [26]: 2 µg/mL
- Toxicity (EC50) [27]: 7.0 ± 0.5 µg/mL
- Toxicity (EC50) [28]: 10.7 ± 0.3 µg/mL
- MIC alone Bolalipid ([29]; Octa-C10/enrofloxacin): 4 to 8 µg/mL
- MIC alone Bolalipid ([29]; Octa-C10/streptomycin): 4 to 8 µg/mL
- MIC [30]: 0.5 µg/mL
- MIC alone Bolalipid [31]: 32 µg/mL
- MIC [32]: 0.5 µg/mL
- MIC [33]: 8 µg/mL
- MIC [34]: 16 µg/mL
- MIC [35]: 0.25 µg/mL
- MIC alone Bolalipid [36]: 64 µg/mL
